Measurements: patent publication US12162863B2, “Modulators of stimulator of interferon genes (STING)” (RYVU THERAPEUTICS S.A., priority 2018, dated 2024)

Legend:
human STING = human STING (Homo sapiens, UniProt Q86WV6); assay: Fluorescence Thermal Shift assay; type: binding; settings: 50 μM compound; STING 0.1 mg/ml; 20 minutes preincubation; read-out: [hSTING] FTS, ΔTm [° C.] for 50 μM
Outline: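 Human STING at a final 0.1 mg/ml was preincubated with compound for 20 min in 50 mM Hepes, 150 mM NaCl, pH 7.5, then SyproOrange dye was added. Thermal unfolding ran from 25 to 99° C at 0.033° C/s, continuous ramp. Values are reported as ΔTm (° C).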

[1] = test system: interferon regulatory factor (IRF) pathway in THP-1 dual cells; assay: THP-1 Dual Reporter Assay, IRF pathway (luciferase reporter); type: cell-based; settings: Homo sapiens, THP1-Dual, 18 h of stimulation, luminescence
Outline: (§1)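 THP-1 dual cells stimulated 18 h with STING agonist; medium then sampled. IRF pathway: luciferase (ISG54 promoter/ISRE) read as luminescence immediately after reagent addition. NF-κB pathway: SEAP (IFN-β minimal promoter/NF-κB elements) developed 2 h at 37 °C, absorbance at 630 nm.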

[2] = test system: NF-κB pathway in THP-1 dual cells; assay: THP-1 Dual Reporter Assay, NF-κB pathway (SEAP reporter); type: cell-based; settings: Homo sapiens, THP1-Dual, 18 h of stimulation, absorbance at 630 nm, read-out: THP1 Dual EC50 (μM) NFkB
Outline: as §1

Sequence of human STING (Q86WV6 whole entry H232R): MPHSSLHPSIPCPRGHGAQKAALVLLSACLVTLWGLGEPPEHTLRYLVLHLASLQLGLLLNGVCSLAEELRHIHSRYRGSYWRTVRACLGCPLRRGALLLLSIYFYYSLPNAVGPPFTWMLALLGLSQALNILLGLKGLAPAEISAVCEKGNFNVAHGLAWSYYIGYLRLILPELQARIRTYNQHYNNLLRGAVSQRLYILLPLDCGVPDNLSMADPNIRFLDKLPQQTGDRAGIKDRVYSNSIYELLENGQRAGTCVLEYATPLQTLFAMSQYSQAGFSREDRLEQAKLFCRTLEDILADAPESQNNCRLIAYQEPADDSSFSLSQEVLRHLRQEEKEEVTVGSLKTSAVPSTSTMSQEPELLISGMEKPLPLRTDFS

| Compound | ΔTm at 50 µM (human STING) | EC50 [1] | EC50 [2] |
| --- | --- | --- | --- |
| Cc1oc2cc(N3CCNCC3)c(F)cc2c(=O)c1CN(CCCc1cccnc1)Cc1ccncc1 [Example 69, 6-fluoro-2-methyl-7-(piperazin-1-yl)-3-({[3-(pyridin-3-yl)propyl][(pyridin-4-yl)methyl]amino}methyl)-4H-chromen-4-one] | > 2.5 °C | ≤ 10 µM | ≤ 10 µM |
| Cc1oc2cc(N3CCOCC3)c(F)cc2c(=O)c1CN(CCCc1cccnc1)Cc1ccncc1 [Example 70, 6-fluoro-2-methyl-7-(morpholin-4-yl)-3-({[3-(pyridin-3-yl)propyl][(pyridin-4-yl)methyl]amino}methyl)-4H-chromen-4-one] | > 2.5 °C | ≤ 10 µM | ≤ 10 µM |
| O=c1c(CN(CCCn2ccnc2)Cc2ccncc2)coc2cc(-c3cc[nH]n3)ccc12 [Example 71, 3-({[3-(1H-imidazol-1-yl)propyl](pyridin-4-ylmethyl)amino}methyl)-7-(1H-pyrazol-3-yl)-4H-chromen-4-one] | > 2.5 °C | ≤ 10 µM | 10 to 20 µM |
| CC(CCn1cnc2ccccc21)N(Cc1ccncc1)Cc1coc2c(ccc3ccccc32)c1=O (stereo not drawn) [Example 72, 3-({[4-(1H-1,3-benzodiazol-1-yl)butan-2-yl](pyridin-4-ylmethyl)amino}methyl)-4H-benzo[h]chromen-4-one] | < 2.5 °C | ≤ 10 µM | ≤ 10 µM |
| Cc1oc2cc(Br)c(F)cc2c(=O)c1CN(CCCn1cnc2cncnc21)Cc1ccncc1 [Example 73, 7-bromo-6-fluoro-2-methyl-3-({[3-(9H-purin-9-yl)propyl][(pyridin-4-yl)methyl]amino}methyl)-4H-chromen-4-one] | > 2.5 °C | 10 to 20 µM | ≤ 10 µM |
| O=c1c(CN(CCCn2ccnc2)Cc2ccncc2)c[nH]c2ccccc12 [Example 74, 3-({[3-(1H-imidazol-1-yl)propyl][(pyridin-4-yl)methyl]amino}methyl)-1,4-dihydroquinolin-4-one] | < 2.5 °C | ≥ 20 µM | ≥ 20 µM |
| Cc1ccc2c(=O)c(CN(CCCn3cnc4c(=O)[nH]cnc43)Cc3ccncc3)c(C)oc2c1C [Example 75, 9-(3-{[(pyridin-4-yl)methyl][(2,7,8-trimethyl-4-oxo-4H-chromen-3-yl)methyl]amino}propyl)-6,9-dihydro-1H-purin-6-one] | > 2.5 °C | ≤ 10 µM | 10 to 20 µM |
| COc1cc2ncn(CCCN(Cc3ccncc3)Cc3coc4c(ccc5ccccc54)c3=O)c2cc1OC [Example 76, 3-({[3-(5,6-dimethoxy-1H-1,3-benzodiazol-1-yl)propyl](pyridin-4-ylmethyl)amino}methyl)-4H-benzo[h]chromen-4-one] | > 2.5 °C | ≤ 10 µM | ≤ 10 µM |
| COc1cc(CN(CCCc2cccnc2)Cc2c(C)oc3cc(N4CCOCC4)c(F)cc3c2=O)ccn1 [Example 77, 6-fluoro-3-({[(2-methoxypyridin-4-yl)methyl][3-(pyridin-3-yl)propyl]amino}methyl)-2-methyl-7-(morpholin-4-yl)-4H-chromen-4-one] | < 2.5 °C | ≤ 10 µM | ≤ 10 µM |
| COc1cc(CN(CCCn2cnc3cncnc32)Cc2c(C)oc3cc(Br)c(F)cc3c2=O)ccn1 [Example 78, 7-bromo-6-fluoro-3-({[(2-methoxypyridin-4-yl)methyl][3-(9H-purin-9-yl)propyl]amino}methyl)-2-methyl-4H-chromen-4-one] | > 2.5 °C | ≤ 10 µM | ≤ 10 µM |
| Cc1oc2cc(N3CCN(C)CC3)c(F)cc2c(=O)c1CN(CCCn1cnc2cncnc21)Cc1ccncc1 [Example 79, 6-fluoro-2-methyl-7-(4-methylpiperazin-1-yl)-3-({[3-(9H-purin-9-yl)propyl][(pyridin-4-yl)methyl]amino}methyl)-4H-chromen-4-one] | > 2.5 °C | ≤ 10 µM | ≤ 10 µM |
| Cc1oc2cc(C(=O)O)c(F)cc2c(=O)c1CN(CCCc1cccnc1)Cc1ccncc1 [Example 80, 6-fluoro-2-methyl-4-oxo-3-({[3-(pyridin-3-yl)propyl][(pyridin-4-yl)methyl]amino}methyl)-4H-chromene-7-carboxylic acid] | < 2.5 °C | ≥ 20 µM | ≥ 20 µM |
| Cc1ccc2c(=O)c(CN(CCCn3cnc4c(N)ncnc43)Cc3ccncc3)c(C)oc2c1C [Example 81, 3-({[3-(6-amino-9H-purin-9-yl)propyl][(pyridin-4-yl)methyl]amino}methyl)-2,7,8-trimethyl-4H-chromen-4-one] | > 2.5 °C | ≥ 20 µM | 10 to 20 µM |
| COc1cc(CN(CCCn2cnc3ccccc32)Cc2cn(C)c3ccccc3c2=O)ccn1 [Example 82, 3-({[3-(1H-1,3-benzodiazol-1-yl)propyl][(2-methoxypyridin-4-yl)methyl]amino}methyl)-1-methyl-1,4-dihydroquinolin-4-one] | > 2.5 °C | ≤ 10 µM | ≤ 10 µM |
| COc1cc(CN(Cc2coc3c(ccc4ccccc43)c2=O)C(C)CCc2cccnc2)ccn1 (stereo not drawn) [Example 83, 3-({[(2-methoxypyridin-4-yl)methyl][4-(pyridin-3-yl)butan-2-yl]amino}methyl)-4H-benzo[h]chromen-4-one] | < 2.5 °C | ≤ 10 µM | ≤ 10 µM |
| COc1cc(CN(CCCn2cnc3cncnc32)Cc2c(C)oc3cc(N4CCN(C)CC4)c(F)cc3c2=O)ccn1 [Example 84, 6-fluoro-2-methyl-7-(4-methylpiperazin-1-yl)-3-({[3-(9H-purin-9-yl)propyl][(2-methoxypyridin-4-yl)methyl]amino}methyl)-4H-chromen-4-one] | > 2.5 °C | 10 to 20 µM | ≤ 10 µM |
| O=c1c(CN(CCCn2cnc3ccccc32)Cc2ccncc2F)coc2c1ccc1ccccc12 [Example 85, 3-({[3-(1H-1,3-benzodiazol-1-yl)propyl][(3-fluoropyridin-4-yl)methyl]amino}methyl)-4H-benzo[h]chromen-4-one] | < 2.5 °C | ≥ 20 µM | ≥ 20 µM |
| COc1cc(CN(CCCn2cnc3ccccc32)Cc2c[nH]c3ccccc3c2=O)ccn1 [Example 88, 3-({[3-(1H-1,3-benzodiazol-1-yl)propyl][(2-methoxypyridin-4-yl)methyl]amino}methyl)-1,4-dihydroquinolin-4-one] | > 2.5 °C | ≥ 20 µM | ≥ 20 µM |
| COc1cc(CN(CCCn2cnc3cncnc32)Cc2cn(C)c3ccccc3c2=O)ccn1 [Example 89, 3-({[(2-methoxypyridin-4-yl)methyl][3-(9H-purin-9-yl)propyl]amino}methyl)-1-methyl-1,4-dihydroquinolin-4-one] | < 2.5 °C | ≤ 10 µM | ≤ 10 µM |
| Cn1cc(CN(CCCc2cccnc2)Cc2ccnc(Cl)c2)c(=O)c2ccccc21 [Example 90, 3-({[(2-chloropyridin-4-yl)methyl][3-(pyridin-3-yl)propyl]amino}methyl)-1-methyl-1,4-dihydroquinolin-4-one] | > 2.5 °C | ≤ 10 µM | 10 to 20 µM |
| COc1cc(CN(CCCn2cnc3ncncc32)Cc2cn(C)c3ccccc3c2=O)ccn1 [Example 91, 3-({[(2-methoxypyridin-4-yl)methyl][3-(7H-purin-7-yl)propyl]amino}methyl)-1-methyl-1,4-dihydroquinolin-4-one] | < 2.5 °C | ≥ 20 µM | ≥ 20 µM |
| COc1cc(CN(CCCc2cc[nH]c(=O)c2)Cc2coc3c(ccc4ccccc43)c2=O)ccn1 [Example 93, 4-(3-{[(2-methoxypyridin-4-yl)methyl]({4-oxo-4H-benzo[h]chromen-3-yl}methyl)amino}propyl)-1,2-dihydropyridin-2-one] | > 2.5 °C | ≥ 20 µM | ≥ 20 µM |
| COc1cc(CN(CCCc2cccnc2)Cc2nn(C)c3ccccc3c2=O)ccn1 [Example 94, 3-({[(2-methoxypyridin-4-yl)methyl][3-(pyridin-3-yl)propyl]amino}methyl)-1-methyl-1,4-dihydrocinnolin-4-one] | > 2.5 °C | ≤ 10 µM | ≥ 20 µM |
| COc1cc(CN(CCCc2cccnc2)Cc2cn(C3CC3)c3cc(F)c(F)cc3c2=O)ccn1 [Example 95, 1-cyclopropyl-6,7-difluoro-3-({[(2-methoxypyridin-4-yl)methyl][3-(pyridin-3-yl)propyl]amino}methyl)-1,4-dihydroquinolin-4-one] | > 2.5 °C | ≤ 10 µM | 10 to 20 µM |
| COc1cc(CN(CCCc2cncnc2)Cc2cn(C)c3ccccc3c2=O)ccn1 [Example 96, 3-({[(2-methoxypyridin-4-yl)methyl][3-(pyrimidin-5-yl)propyl]amino}methyl)-1-methyl-1,4-dihydroquinolin-4-one] | > 2.5 °C | ≤ 10 µM | ≤ 10 µM |
| COc1cc(CN(Cc2cn(C)c3ccccc3c2=O)C(C)CCc2cccnc2)ccn1 (stereo not drawn) [Example 97, 3-({[(2-methoxypyridin-4-yl)methyl][4-(pyridin-3-yl)butan-2-yl]amino}methyl)-1-methyl-1,4-dihydroquinolin-4-one] | > 2.5 °C | ≤ 10 µM | ≤ 10 µM |
| COc1cc(CN(CCCc2cccnc2)Cc2n[nH]c3ccccc3c2=O)ccn1 [Example 98, 3-({[(2-methoxypyridin-4-yl)methyl][3-(pyridin-3-yl)propyl]amino}methyl)-1,4-dihydrocinnolin-4-one] | > 2.5 °C | 10 to 20 µM | ≥ 20 µM |
